Experimental data published in US6590123B2, “Aminobenzoic acid derivatives having anti-tumorigenic activity, methods of making and using the same” (Mount Sinai School of Medicine of New York University, priority 1998, dated 2003).

What was measured:
[1] = tested on: P338 leukemia lymphoma cells; experiment: Survival and ED50 in mice implanted i.p. with P338 lymphoma; type: in vivo, male C57 BL/6JX mice
Description: FIG. 9 is a plot graph of the survival rate of male C57 BL/6JX mice implanted (i.p.) with P338 lymphoma, from 10 to 40 days after implantation. Two groups were used for the study: a control group of ten and a test group of ten that were treated with 20 mg/kg, (i.p.) of compound 8 at 2 and 8 days post-implantation.
(§1) The in vivo efficacy of 3-BAABU and 3-IAABU of the present invention was asssessed in a murine model, along with known anti-tubule agents, vinblastine and paclitaxel, as a comparative standard. Approximately 10^6 P338 leukemia lymphoma cells/mouse were implanted intra-peritoneal (i.p.) into male C57 BL/6JX mice (Jackson Laboratories, N.Y.). On days 2 and 8 post-implantation, drugs were administrated i.p. at the following concentration ranges: 3-BAABU from 16.6 to 116 μmole/kg, 3-IAABU from 14.4 to 101 μmole/kg, vinblastine from 2.2 to 20 μmole/kg and paclitaxel from 28 to 57 μmole/kg.
(§2) Both control and treated animals were examined for ascitic tumor burden daily for 35 days. […] Therapeutic index was defined as the ratio of LD50 (lethal dose) to ED50 (effective dose).

Purified tubulin = experiment: Inhibition of microtubule assembly by spectrophotometry, cell free system; type: biochemical, calf; settings: 23 μM
Description: (§3) Purified tubulin was purchased from Sigma (St. Louis, Mo.). The effects of compounds 6, 7, 8, 9, paclitaxel and vinblastine on the microtubule assembly-disassembly process were determined using conditions recommended by the vendor. For assembly inhibition, 100 μl tubulin solution (500-600 μg protein/ml) was mixed gently with 400 μl reaction buffer containing 0.1 M MES (2-[N-morpholino]ethane sulfonic acid), 1 mM EGTA ([…]-N,N,N′,N′-tetraacetic acid), 0.5 mM MgCl2, 0.1 mM EDTA and 2.5 M gycerol at 37° C. Compounds 6, 7, 8, and 9 were next added to each sample at final concentrations of 10, 10, 1 and 1 μg/ml, respectively. After adding GTP to each sample to a final concentration of 1 mM, the microtubule assembly process was monitored by measuring the change of absorbance (OD) at 350 nm on a spectrophotometer (Ultrospec III, Pharmacia LKB, Uppsala, Sweden). A completed assembly process was observed within 40 min at room temperature. For disassembly inhibition, compounds 6, 7, 8, and 9 were added, at the above concentrations, to covets with repolymerized microtubules as described above, and incubated in melting ice. Changes of absorbance (OD) were monitored at 350 nm for 30 min until the OD values in the controls returned to the starting level, i.e., when the assembly-disassembly cycle was completed.
Purified tubulin from calf brain was purchased from Sigma (St. Louis, Mo.). The effects of 3-BAABU (3-bromoacetoamido, benzoylurea) on the microtubule assembly-disassembly process were determined using the conditions recommended by the vendor. For assembly inhibition, 100 μl tubulin solution (500-600 μg protein/ml) was mixed gently with 400 μl reaction buffer containing 0.1 M MES, 1 mM EGTA, 0.5 mM MgCl2, 0.1 mM EDTA and 2.5 M glycerol at 37° C. 3-BAABU, paclitaxel or vinblastine were then added to each sample cuvet at final concentrations of 3.3, 23 or 22 μM, respectively. After adding GTP to each sample to a final concentration of 1 mM, the microtubule assembly process was monitored by measuring the change of absorbance (OD) every 5 min at 350 nm on a spectrophotometer (Ultrospec III, Pharmacia LKB, Uppsala, Sweden). A completed assembly process was observed within 40 min at room temperature. For disassembly inhibition, 3-BAABU (3.3 μM), paclitaxel (23 μM) or vinblastine (22 μM) was added to a cuvet with repolymerized microtubules according to the method described above, and incubated in melting ice. Changes of absorbance (OD) were monitored at 350 nm for 30 min until the OD values in the controls returned to the starting level, i.e., completion of the assembly-disassembly cycle. Solvent solutions were used as control and had no effect in either the assembly or disassembly process.

[2] = tested on: repolymerized microtubules; experiment: Inhibition of microtubule disassembly by spectrophotometry, cell free system; type: biochemical, calf; settings: 23 μM
Description: as §3, with “A completed assembly process was observed within 40 min at room temperature. For disassembly inhibition, compounds 6, 7, 8, and 9 were added, at the above concentrations, to covets with repolymerized microtubules as described above, and incubated in melting ice.” left out
Purified tubulin from calf brain was purchased from Sigma (St. Louis, Mo.). The effects of 3-BAABU (3-bromoacetoamido, benzoylurea) on the microtubule assembly-disassembly process were determined using the conditions recommended by the vendor. […]

[3] = LD50 (lethal dose) in mice; settings: mice, i.p.
Text: as §1, §2

CC(=O)O[C@H]1C(=O)[C@@]2(C)[C@H]([C@H](OC(=O)c3ccccc3)[C@]3(O)C[C@H](OC(=O)[C@H](O)[C@@H](NC(=O)c4ccccc4)c4ccccc4)C(C)=C1C3(C)C)[C@]1(OC(C)=O)CO[C@@H]1C[C@@H]2O [Paclitaxel, reference compound]
Survival IL % ([1]; P338 Lymphoma (i.p.), 30 mg/kg ip on days 2 & 8): 10%
Survival Mean ± SD ([1]; P338 Lymphoma (i.p.), 30 mg/kg ip on days 2 & 8, control 18.6 ± 1.1): 20.4 ± 3.2
ED50 ([1]; P338 leukemia lymphoma i.p. in mice, drug i.p. on days 2 and 8): 37 µmol/kg
activity on microtubular polymerization (Purified tubulin): no activity
inhibition of microtubule depolymerization [2]: significant inhibition
LD50 [3]: 45 µmol/kg
